Article PMC5218480 (PLoS ONE, 2017)

System: MV-4-11 cells
Assay: Gene expression microarray analysis (Affymetrix PrimeView) and GSEA
Assay type: cell-based, human
Set-up: RFU PODN (11730768_x_at) / Fold change /veh PODN (11730768_x_at) / RFU LINC00158 (11744669_a_at) / Fold change /veh LINC00158 (11744669_a_at) / RFU DUSP10 (11751237_a_at) / Fold change /veh DUSP10 (11751237_a_at) / RFU ID3 (11757404_x_at) / Fold change /veh ID3 (11757404_x_at) / RFU PLEKHG5 (11737974_s_at) / Fold change /veh PLEKHG5 (11737974_s_at) / RFU LRRC4B (11730491_at) / Fold change /veh LRRC4B (11730491_at) / RFU GIMAP4 (11747438_a_at) / Fold change /veh GIMAP4 (11747438_a_at) / RFU KRT8 (11758183_x_at) / Fold change /veh KRT8 (11758183_x_at) / RFU CNN1 (11734310_a_at) / Fold change /veh CNN1 (11734310_a_at) / RFU VPS37D (11726825_at) / Fold change /veh VPS37D (11726825_at) / RFU C10orf10 (11716522_x_at) / Fold change /veh C10orf10 (11716522_x_at) / RFU KIR2DL2 /// KIR2DL4 /// KIR2DL5A /// KIR2DL5B /// KIR2DS1 /// KIR2DS2 /// KIR2DS3 /// KIR2DS4 /// KIR3DL3 /// KIR3DL3 /// KIR3DS1 (11738374_at) / Fold change /veh KIR2DL2 /// KIR2DL4 /// KIR2DL5A /// KIR2DL5B /// KIR2DS1 /// KIR2DS2 /// KIR2DS3 /// KIR2DS4 /// KIR3DL3 /// KIR3DL3 /// KIR3DS1 (11738374_at) / RFU C1QL1 (11718748_at) / Fold change /veh C1QL1 (11718748_at) / RFU TMPRSS4 (11747572_a_at) / Fold change /veh TMPRSS4 (11747572_a_at) / RFU HAMP (11756126_x_at) / Fold change /veh HAMP (11756126_x_at) / RFU RNFT2 (11725882_a_at) / Fold change /veh RNFT2 (11725882_a_at) / RFU NR4A2 (11747474_a_at) / Fold change /veh NR4A2 (11747474_a_at) / RFU ABCC12 (11746883_a_at) / Fold change /veh ABCC12 (11746883_a_at) / RFU TMEM136 (11760407_x_at) / Fold change /veh TMEM136 (11760407_x_at) / RFU CLDN22 /// WWC2 (11732394_at) / Fold change /veh CLDN22 /// WWC2 (11732394_at) / RFU HLA-DPB1 (11760878_x_at) / Fold change /veh HLA-DPB1 (11760878_x_at) / RFU SPINT1 (11716480_a_at) / Fold change /veh SPINT1 (11716480_a_at) / RFU GAP43 (11754022_s_at) / Fold change /veh GAP43 (11754022_s_at) / RFU A4GNT (11735810_at) / Fold change /veh A4GNT (11735810_at) / RFU PRB3 (11715151_x_at) / Fold change /veh PRB3 (11715151_x_at) / RFU TUBB4B (11761932_at) / Fold change /veh TUBB4B (11761932_at) / RFU CAPN14 (11732068_a_at) / Fold change /veh CAPN14 (11732068_a_at) / RFU TMCC2 (11721928_a_at) / Fold change /veh TMCC2 (11721928_a_at) / RFU IRGQ (11745062_a_at) / Fold change /veh IRGQ (11745062_a_at) / RFU FAM174B (11720279_a_at) / Fold change /veh FAM174B (11720279_a_at) / RFU TMPRSS4 (11748680_a_at) / Fold change /veh TMPRSS4 (11748680_a_at) / RFU FAM212B (11763350_a_at) / Fold change /veh FAM212B (11763350_a_at) / RFU PLEKHG5 (11743358_a_at) / Fold change /veh PLEKHG5 (11743358_a_at) / RFU ZSCAN30 (11745921_a_at) / Fold change /veh ZSCAN30 (11745921_a_at) / RFU CMKLR1 (11741424_a_at) / Fold change /veh CMKLR1 (11741424_a_at) / RFU LOC101060620 /// MAPK8IP1 (11723275_at) / Fold change /veh LOC101060620 /// MAPK8IP1 (11723275_at) / RFU SPTSSB (11747773_x_at) / Fold change /veh SPTSSB (11747773_x_at) / RFU PRSS12 (11739890_at) / Fold change /veh PRSS12 (11739890_at) / RFU BIN1 (11741810_x_at) / Fold change /veh BIN1 (11741810_x_at) / RFU WNT11 (11732464_a_at) / Fold change /veh WNT11 (11732464_a_at) / RFU C10orf10 (11716521_a_at) / Fold change /veh C10orf10 (11716521_a_at) / RFU C5orf56 (11738089_at) / Fold change /veh C5orf56 (11738089_at) / RFU CYB561 (11721691_x_at) / Fold change /veh CYB561 (11721691_x_at) / RFU ANKRD19P (11752326_a_at) / Fold change /veh ANKRD19P (11752326_a_at) / RFU OR2T12 /// OR2T33 /// OR2T8 (11738714_s_at) / Fold change /veh OR2T12 /// OR2T33 /// OR2T8 (11738714_s_at) / RFU VCAN (11748164_a_at) / Fold change /veh VCAN (11748164_a_at) / RFU JSRP1 (11732532_at) / Fold change /veh JSRP1 (11732532_at) / RFU KRTAP10-11 (11738290_x_at) / Fold change /veh KRTAP10-11 (11738290_x_at) / RFU MYO3A (11730013_a_at) / Fold change /veh MYO3A (11730013_a_at) / RFU EBF3 (11725865_a_at) / Fold change /veh EBF3 (11725865_a_at) / RFU CAMK2N1 (11719241_x_at) / Fold change /veh CAMK2N1 (11719241_x_at) / RFU C5orf56 (11738088_a_at) / Fold change /veh C5orf56 (11738088_a_at) / RFU OLFML3 (11715873_a_at) / Fold change /veh OLFML3 (11715873_a_at) / RFU LOC100653217 /// NTM (11731650_a_at) / Fold change /veh LOC100653217 /// NTM (11731650_a_at) / RFU MAPK11 (11762145_a_at) / Fold change /veh MAPK11 (11762145_a_at) / RFU FIZ1 (11724087_x_at) / Fold change /veh FIZ1 (11724087_x_at) / RFU OASL (11726364_x_at) / Fold change /veh OASL (11726364_x_at) / RFU SOX15 (11748057_x_at) / Fold change /veh SOX15 (11748057_x_at) / RFU CD79A (11719716_a_at) / Fold change /veh CD79A (11719716_a_at) / RFU HIST1H1D (11736915_at) / Fold change /veh HIST1H1D (11736915_at) / RFU CASKIN2 (11723855_a_at) / Fold change /veh CASKIN2 (11723855_a_at) / RFU LOC730098 (11760151_x_at) / Fold change /veh LOC730098 (11760151_x_at) / RFU OR4N2 (11742367_at) / Fold change /veh OR4N2 (11742367_at) / RFU PRRT2 (11749266_a_at) / Fold change /veh PRRT2 (11749266_a_at) / RFU SNX32 (11753110_a_at) / Fold change /veh SNX32 (11753110_a_at) / RFU CDHR5 (11726645_a_at) / Fold change /veh CDHR5 (11726645_a_at) / RFU RCAN1 (11760418_a_at) / Fold change /veh RCAN1 (11760418_a_at) / RFU FAM167A (11723789_a_at) / Fold change /veh FAM167A (11723789_a_at) / RFU FAM26E (11764081_at) / Fold change /veh FAM26E (11764081_at) / RFU ISYNA1 (11749810_s_at) / Fold change /veh ISYNA1 (11749810_s_at) / RFU ACY1 (11761880_at) / Fold change /veh ACY1 (11761880_at) / RFU 11764098_at / Fold change /veh 11764098_at / RFU SAMD14 (11745864_x_at) / Fold change /veh SAMD14 (11745864_x_at) / RFU NPB (11741838_a_at) / Fold change /veh NPB (11741838_a_at) / RFU TMPRSS6 (11731388_a_at) / Fold change /veh TMPRSS6 (11731388_a_at) / RFU KRTAP10-2 (11738614_at) / Fold change /veh KRTAP10-2 (11738614_at) / RFU ARHGAP8 /// PRR5-ARHGAP8 (11727945_x_at) / Fold change /veh ARHGAP8 /// PRR5-ARHGAP8 (11727945_x_at) / RFU KRTAP5-7 /// NADSYN1 (11734609_at) / Fold change /veh KRTAP5-7 /// NADSYN1 (11734609_at) / RFU RASL12 (11751679_a_at) / Fold change /veh RASL12 (11751679_a_at) / RFU CDKN2B (11736163_a_at) / Fold change /veh CDKN2B (11736163_a_at) / RFU PRF1 (11729649_at) / Fold change /veh PRF1 (11729649_at) / RFU, ZNF638 /// ZNF638-IT1 / Fold change vs veh, ZNF638 /// ZNF638-IT1 / RFU, PANK3 / Fold change vs veh, PANK3 / RFU, SH3YL1 / Fold change vs veh, SH3YL1 / RFU, ZEB2 / Fold change vs veh, ZEB2 / RFU, NRIP1 / Fold change vs veh, NRIP1 / RFU, PTTG1IP / Fold change vs veh, PTTG1IP / RFU, CAPN2 / Fold change vs veh, CAPN2 / RFU, MED14 / Fold change vs veh, MED14 / RFU, SNORA58 / Fold change vs veh, SNORA58 / RFU, C1orf63 / Fold change vs veh, C1orf63 / RFU, LRRFIP1 / Fold change vs veh, LRRFIP1 / RFU, NDUFAF7 / Fold change vs veh, NDUFAF7 / RFU, SLC12A2 / Fold change vs veh, SLC12A2 / RFU, IBTK / Fold change vs veh, IBTK / RFU, ESF1 / Fold change vs veh, ESF1 / Fold change vs veh, TMEM50B / RFU, TAOK1 / Fold change vs veh, TAOK1 / RFU, ACBD3 / Fold change vs veh, ACBD3 / RFU, TMA16 / Fold change vs veh, TMA16 / RFU, RWDD3 / Fold change vs veh, RWDD3 / RFU, BCAT1 / Fold change vs veh, BCAT1 / RFU, EDEM3 / Fold change vs veh, EDEM3 / RFU, TMEM33 / Fold change vs veh, TMEM33 / RFU, WDR75 / Fold change vs veh, WDR75 / RFU, AHCTF1 / Fold change vs veh, AHCTF1 / RFU, TFRC / Fold change vs veh, TFRC / RFU, ZDHHC17 / Fold change vs veh, ZDHHC17 / RFU, NOM1 / Fold change vs veh, NOM1 / RFU, ARL8B / Fold change vs veh, ARL8B / RFU, ZBTB11 / Fold change vs veh, ZBTB11 / RFU, TAMM41 / Fold change vs veh, TAMM41 / RFU, KIAA1704 /// LOC100996395 / Fold change vs veh, KIAA1704 /// LOC100996395 / RFU, ING1 / Fold change vs veh, ING1 / RFU, TRMT61B / Fold change vs veh, TRMT61B / RFU, FUBP3 / Fold change vs veh, FUBP3 / RFU, TP53 / Fold change vs veh, TP53 / RFU, TNKS2 / Fold change vs veh, TNKS2 / RFU, ZFP14 / Fold change vs veh, ZFP14 / RFU, ACTR2 / Fold change vs veh, ACTR2 / RFU, PPP3R1 / Fold change vs veh, PPP3R1 / RFU, PIK3R1 / Fold change vs veh, PIK3R1 / RFU, HNRNPA1 / Fold change vs veh, HNRNPA1 / RFU, RNF170 / Fold change vs veh, RNF170 / RFU, ZNF28 / Fold change vs veh, ZNF28 / RFU, RNGTT / Fold change vs veh, RNGTT / RFU, OGT / Fold change vs veh, OGT / RFU, BRD1 / Fold change vs veh, BRD1 / RFU, MARS / Fold change vs veh, MARS / RFU, ZNF655 / Fold change vs veh, ZNF655 / RFU, FAHD1 / Fold change vs veh, FAHD1 / RFU, BDP1 / Fold change vs veh, BDP1 / RFU, LRRCC1 / Fold change vs veh, LRRCC1 / RFU, ARID1A / Fold change vs veh, ARID1A / RFU, ZNF146 / Fold change vs veh, ZNF146 / RFU, ZNF330 / Fold change vs veh, ZNF330 / RFU, GPN3 / Fold change vs veh, GPN3 / RFU, C9orf123 / Fold change vs veh, C9orf123 / RFU, N4BP2L2 / Fold change vs veh, N4BP2L2 / RFU, ARFIP1 / Fold change vs veh, ARFIP1 / RFU, FAM179B / Fold change vs veh, FAM179B / RFU, BCL10 / Fold change vs veh, BCL10 / RFU, UHRF1BP1L / Fold change vs veh, UHRF1BP1L / RFU, BET1 / Fold change vs veh, BET1 / RFU, CNOT2 / Fold change vs veh, CNOT2 / RFU, ZNF268 / Fold change vs veh, ZNF268 / Fold change vs veh, ZNF507 / RFU, DGCR2 / Fold change vs veh, DGCR2 / RFU, WDSUB1 / Fold change vs veh, WDSUB1 / Fold change vs veh, HSP90B1 /// MIR3652 / RFU, ADSS / Fold change vs veh, ADSS / RFU, GK / Fold change vs veh, GK / RFU, ZNF148 / Fold change vs veh, ZNF148 / RFU, TAF9 / Fold change vs veh, TAF9 / RFU, SLC1A5 / Fold change vs veh, SLC1A5 / RFU, SLMO2 / Fold change vs veh, SLMO2 / RFU, ABCC4 / Fold change vs veh, ABCC4 / RFU, LOC101060439 /// RAP1B / Fold change vs veh, LOC101060439 /// RAP1B / RFU, RFX7 / Fold change vs veh, RFX7 / RFU, GTPBP10 / Fold change vs veh, GTPBP10 / RFU, CNEP1R1 / Fold change vs veh, CNEP1R1 / RFU, BIVM-ERCC5 /// ERCC5 / Fold change vs veh, BIVM-ERCC5 /// ERCC5 / RFU, ILF3 / Fold change vs veh, ILF3 / RFU 11762660_at / Fold change /veh 11762660_at / RFU VCAN (11757783_s_at) / Fold change /veh VCAN (11757783_s_at) / RFU DDX43 (11728927_at) / Fold change /veh DDX43 (11728927_at) / RFU KRT8 (11758188_x_at) / Fold change /veh KRT8 (11758188_x_at) / RFU NKD1 (11759106_at) / Fold change /veh NKD1 (11759106_at) / RFU SRD5A1 (11742802_a_at) / Fold change /veh SRD5A1 (11742802_a_at) / RFU TPSAB1 /// TPSB2 (11721975_s_at) / Fold change /veh TPSAB1 /// TPSB2 (11721975_s_at) / RFU GSTM3 (11746129_a_at) / Fold change /veh GSTM3 (11746129_a_at) / RFU IL23R (11737362_x_at) / Fold change /veh IL23R (11737362_x_at) / RFU TMEM51 (11727254_a_at) / Fold change /veh TMEM51 (11727254_a_at) / RFU PIWIL2 (11732686_x_at) / Fold change /veh PIWIL2 (11732686_x_at) / RFU ORM1 (11744905_x_at) / Fold change /veh ORM1 (11744905_x_at) / RFU CCDC152 (11743942_at) / Fold change /veh CCDC152 (11743942_at) / RFU ECM1 (11717891_a_at) / Fold change /veh ECM1 (11717891_a_at) / RFU IL23R (11748794_a_at) / Fold change /veh IL23R (11748794_a_at) / RFU TNFAIP8L3 (11732012_x_at) / Fold change /veh TNFAIP8L3 (11732012_x_at) / RFU MBOAT4 (11741988_at) / Fold change /veh MBOAT4 (11741988_at) / RFU 11764193_at / Fold change /veh 11764193_at / RFU TMEM53 (11763286_at) / Fold change /veh TMEM53 (11763286_at) / RFU MAGEB2 (11727129_at) / Fold change /veh MAGEB2 (11727129_at) / RFU TMEM200A (11744735_a_at) / Fold change /veh TMEM200A (11744735_a_at) / RFU CCDC152 (11751479_a_at) / Fold change /veh CCDC152 (11751479_a_at) / RFU FAM211A (11726209_a_at) / Fold change /veh FAM211A (11726209_a_at) / RFU RGS16 (11746705_a_at) / Fold change /veh RGS16 (11746705_a_at) / RFU VCAN (11755009_s_at) / Fold change /veh VCAN (11755009_s_at) / RFU RHOB (11743442_s_at) / Fold change /veh RHOB (11743442_s_at) / RFU RGS16 (11720943_a_at) / Fold change /veh RGS16 (11720943_a_at) / RFU RGS16 (11720944_at) / Fold change /veh RGS16 (11720944_at) / RFU, VPS4B / Fold change vs veh, VPS4B / RFU, CREB1 / Fold change vs veh, CREB1 / RFU, DNAJC13 / Fold change vs veh, DNAJC13 / RFU, GNAQ / Fold change vs veh, GNAQ / RFU, CDK5R1 / Fold change vs veh, CDK5R1 / RFU, ZRANB3 / Fold change vs veh, ZRANB3 / RFU, CUL4A / Fold change vs veh, CUL4A / RFU, CCNY / Fold change vs veh, CCNY / RFU, UFL1 / Fold change vs veh, UFL1 / RFU, COG3 / Fold change vs veh, COG3 / RFU, DIAPH2 / Fold change vs veh, DIAPH2 / RFU, SKA2 / Fold change vs veh, SKA2 / RFU, AFF3 / Fold change vs veh, AFF3 / RFU, LMF1 / Fold change vs veh, LMF1 / RFU, IPO11 / Fold change vs veh, IPO11 / RFU, DFFB / Fold change vs veh, DFFB / RFU, FOXP1 / Fold change vs veh, FOXP1 / RFU, CARD8 / Fold change vs veh, CARD8 / RFU, STRN3 / Fold change vs veh, STRN3 / RFU, ADK / Fold change vs veh, ADK / RFU, RASSF2 / Fold change vs veh, RASSF2 / RFU, WIPF1 / Fold change vs veh, WIPF1 / RFU, LARP1B / Fold change vs veh, LARP1B / RFU, RASA1 / Fold change vs veh, RASA1 / RFU, RB1 / Fold change vs veh, RB1 / RFU, PPFIA1 / Fold change vs veh, PPFIA1 / RFU, MAT2A / Fold change vs veh, MAT2A / RFU, CCT5 / Fold change vs veh, CCT5 / RFU, WDR92 / Fold change vs veh, WDR92 / RFU, CUX1 / Fold change vs veh, CUX1 / RFU, TTC7A / Fold change vs veh, TTC7A / RFU, TMEM135 / Fold change vs veh, TMEM135 / RFU, DEPTOR / Fold change vs veh, DEPTOR / RFU, CPM / Fold change vs veh, CPM / RFU, DNAJB6 / Fold change vs veh, DNAJB6 / RFU, CACNA2D3 / Fold change vs veh, CACNA2D3 / RFU, DTX4 / Fold change vs veh, DTX4 / RFU, TFCP2 / Fold change vs veh, TFCP2 / RFU, GMCL1 /// GMCL1P1 / Fold change vs veh, GMCL1 /// GMCL1P1 / RFU, AEBP2 / Fold change vs veh, AEBP2 / RFU, SNHG1 /// SNORD22 /// SNORD25 /// SNORD26 /// SNORD27 /// SNORD28 /// SNORD29 /// SNORD31 / Fold change vs veh, SNHG1 /// SNORD22 /// SNORD25 /// SNORD26 /// SNORD27 /// SNORD28 /// SNORD29 /// SNORD31 / Fold change (Aza/veh), C12orf56 (ProbeSet 11735607_a_at) / Fold change (ACY-1035/veh), C12orf56 (ProbeSet 11735607_a_at) / Fold change (Aza/veh), FGFR1OP (ProbeSet 11751329_s_at) / Fold change (ACY-1035/veh), FGFR1OP (ProbeSet 11751329_s_at) / Fold change (Aza/veh), VPS36 (ProbeSet 11739960_a_at) / Fold change (ACY-1035/veh), VPS36 (ProbeSet 11739960_a_at) / RFU SYPL1 (11715823_x_at) / Fold change /veh SYPL1 (11715823_x_at) / RFU IGFBP7 (11715501_s_at) / Fold change /veh IGFBP7 (11715501_s_at) / RFU REEP3 (11722064_at) / Fold change /veh REEP3 (11722064_at) / RFU IGLL1 (11728026_x_at) / Fold change /veh IGLL1 (11728026_x_at): dose or concentration left out as unconfirmed
Conditions: ProbeSet 11753623_s_at; LIST D

## Nc1ccc(-c2cccs2)cc1NC(=O)c1ccc2c(c1)cc(C1CC1)n2CCN1CCOCC1 [ACY-1035]
  RFU, LOC101060439 /// RAP1B: 312.98 RFU
